Consider 28 compounds from patent US11773086B2, “Fungal modulators” (TRUSTEES OF BOSTON UNIVERSITY, priority 2020, dated 2023).

SMILES strings stand for the structures.

For this experiment, the system named is FLC-resistant Candida auris. Briefly: Checkerboard (dose-response matrix) with fluconazole, FICI. The format is cell-based. The following applies: fractional inhibitory concentration index for enhancement of FLC activity in FLC-resistant Candida auris; <0.5 strong synergy, 2 = no synergy. The method, then:
Generally, the synergy is measured by determining the fractional inhibitory concentration (FIC) value of the combination. […] FIC values for both agents in a particular square/well are calculated in this way followed by determination of the FIC index (sum of the FICs of each agent in the particular square/well).
Compound potency was assessed alone by dose response assays or in combination with another compound by dose-response matrixes in 96-well plates, or 384-well, flat-bottom, microtiter plates (Corning) as previously described. Plates were incubated at 30° C. for the indicated time period. Growth was quantified by measuring OD600 and corrected for medium background. All strains were assessed in biological duplicate experiments with technical duplicates. Growth was normalized to untreated controls and plotted as a heat map using Java TreeView 1.1.6r4. For dose-response matrixes fractional inhibitory concentration index at 90% growth inhibition (FICI90) was calculated as previously described. The fluconazole Etest susceptibility assay was performed as previously described. Briefly, 200 μL of 5×10^6 cells/mL were plated on YPD agar (1%) plates with either with 50 μM azoffluxin or containing DMSO.
In the case of `CC(C)C[C@@H](O)COc1cc2c(cc1C1(c3cc4c(cc3OC[C@H](O)CC(C)C)OCO4)C(=O)Nc3cc(F)ccc31)OCO2` [CMLD012393, 6-fluoro-3,3-bis(6-(((R)-2-hydroxy-4-methylpentyl)oxy)benzo[d][1,3]dioxol-5-yl)indolin-2-one], the FICI is given as 0.130.
With `CC[C@@H](O)COc1cc2c(cc1C1(c3cc4c(cc3OC[C@H](O)CC)OCO4)C(=O)Nc3cc(F)ccc31)OCO2` [CMLD012394, 6-fluoro-3,3-bis(6-((R)-2-hydroxybutoxy)benzo[d][1,3]dioxol-5-yl)indolin-2-one] the figure was 0.266; with `CC[C@@H](O)COc1cc2c(cc1C1(c3cc4c(cc3OC[C@H](O)CC)OCO4)C(=O)Nc3c(F)cccc31)OCO2` [CMLD012399, 7-fluoro-3,3-bis(6-((R)-2-hydroxybutoxy)benzo[d][1,3]dioxol-5-yl)indolin-2-one], 0.500.
With `C=CC[C@@H](O)COc1cc2c(cc1C1(c3cc4c(cc3OC[C@H](O)CC=C)OCO4)C(=O)Nc3cc(F)ccc31)OCO2` [CMLD012400, 6-fluoro-3,3-bis(6-(((R)-2-hydroxypent-4-en-1-yl)oxy)benzo[d][1,3]dioxol-5-yl)indolin-2-one] the figure was 0.130; with `C=CC[C@@H](O)COc1cc2c(cc1C1(c3cc4c(cc3OC[C@H](O)CC=C)OCO4)C(=O)Nc3c(F)cccc31)OCO2` [CMLD012402, 7-fluoro-3,3-bis(6-(((R)-2-hydroxypent-4-en-1-yl)oxy)benzo[d][1,3]dioxol-5-yl)indolin-2-one], 0.113; with `C=C(C)C[C@@H](O)COc1cc2c(cc1C1(c3cc4c(cc3OC[C@H](O)CC(=C)C)OCO4)C(=O)Nc3c(F)cccc31)OCO2` [CMLD012436, 7-fluoro-3,3-bis(6-(((R)-2-hydroxy-4-methylpent-4-en-1-yl)oxy)benzo[d][1,3]dioxol-5-yl)indolin-2-one], 0.175.
With `CCC[C@@H](O)COc1cc2c(cc1C1(c3cc4c(cc3OC[C@H](O)CCC)OCO4)C(=O)Nc3cc(F)ccc31)OCO2` [CMLD012439, 6-fluoro-3,3-bis(6-(((R)-2-hydroxypentyl)oxy)benzo[d][1,3]dioxol-5-yl)indolin-2-one] the figure was 0.130; with `CCC[C@@H](O)COc1cc2c(cc1C1(c3cc4c(cc3OC[C@H](O)CCC)OCO4)C(=O)Nc3c(F)cccc31)OCO2` [CMLD012440, 7-fluoro-3,3-bis(6-(((R)-2-hydroxypentyl)oxy)benzo[d][1,3]dioxol-5-yl)indolin-2-one], 0.058.
As to `CC(C)(C)C[C@@H](O)COc1cc2c(cc1C1(c3cc4c(cc3OC[C@H](O)CC(C)(C)C)OCO4)C(=O)Nc3cc(F)ccc31)OCO2` [CMLD012443, 6-fluoro-3,3-bis(6-(((R)-2-hydroxy-4,4-dimethylpentyl)oxy)benzo[d][1,3]dioxol-5-yl)indolin-2-one], the FICI is reported as 0.068.
With `CC(C)(C)C[C@@H](O)COc1cc2c(cc1C1(c3cc4c(cc3OC[C@H](O)CC(C)(C)C)OCO4)C(=O)Nc3ccc(F)cc31)OCO2` [CMLD012444, 5-fluoro-3,3-bis(6-(((R)-2-hydroxy-4,4-dimethylpentyl)oxy)benzo[d][1,3]dioxol-5-yl)indolin-2-one] the figure was 0.068; with `CC(C)(C)C[C@@H](O)COc1cc2c(cc1C1(c3cc4c(cc3OC[C@H](O)CC(C)(C)C)OCO4)C(=O)Nc3cc(Br)ccc31)OCO2` [CMLD012446, 6-bromo-3,3-bis(6-(((R)-2-hydroxy-4,4-dimethylpentyl)oxy)benzo[d][1,3]dioxol-5-yl)indolin-2-one], 0.068.
For `C=CCC[C@@H](O)COc1cc2c(cc1C1(c3cc4c(cc3OC[C@H](O)CCC=C)OCO4)C(=O)Nc3cc(F)ccc31)OCO2` [CMLD012447, 6-fluoro-3,3-bis(6-(((R)-2-hydroxyhex-5-en-1-yl)oxy)benzo[d][1,3]dioxol-5-yl)indolin-2-one] the value was 0.130; for `C=CCC[C@@H](O)COc1cc2c(cc1C1(c3cc4c(cc3OC[C@H](O)CCC=C)OCO4)C(=O)Nc3c(F)cccc31)OCO2` [CMLD012449, 7-fluoro-3,3-bis(6-(((R)-2-hydroxyhex-5-en-1-yl)oxy)benzo[d][1,3]dioxol-5-yl)indolin-2-one], 0.113.
For `C=CCC[C@@H](O)COc1cc2c(cc1C1(c3cc4c(cc3OC[C@H](O)CCC=C)OCO4)C(=O)Nc3ccc(F)cc31)OCO2` [CMLD012450, 5-fluoro-3,3-bis(6-(((R)-2-hydroxyhex-5-en-1-yl)oxy)benzo[d][1,3]dioxol-5-yl)indolin-2-one] the value was 0.266; for `C=CCC[C@@H](O)COc1cc2c(cc1C1(c3cc4c(cc3OC[C@H](O)CCC=C)OCO4)C(=O)Nc3cc(Br)ccc31)OCO2` [CMLD012452, 6-bromo-3,3-bis(6-(((R)-2-hydroxyhex-5-en-1-yl)oxy)benzo[d][1,3]dioxol-5-yl)indolin-2-one], 0.266; for `C=CCC[C@@H](O)COc1cc2c(cc1C1(c3cc4c(cc3OC[C@H](O)CCC=C)OCO4)C(=O)Nc3cccc(Br)c31)OCO2` [CMLD012453, 4-bromo-3,3-bis(6-(((R)-2-hydroxyhex-5-en-1-yl)oxy)benzo[d][1,3]dioxol-5-yl)indolin-2-one], 0.257.
In the case of `CCC[C@@H](O)COc1cc2c(cc1C1(c3cc4c(cc3OC[C@H](O)CCC)OCO4)C(=O)Nc3ccc(F)cc31)OCO2` [CMLD013619, 5-fluoro-3,3-bis(6-(((R)-2-hydroxypentyl)oxy)benzo[d][1,3]dioxol-5-yl)indolin-2-one], the FICI is 0.255.
With `CC(C)C[C@@H](O)COc1cc2c(cc1C1(c3cc4c(cc3OC[C@H](O)CC(C)C)OCO4)C(=O)Nc3ccc(F)cc31)OCO2` [CMLD013622, 5-fluoro-3,3-bis(6-(((R)-2-hydroxy-4-methylpentyl)oxy)benzo[d][1,3]dioxol-5-yl)indolin-2-one] the figure was 0.130; with `CC(C)C[C@@H](O)COc1cc2c(cc1C1(c3cc4c(cc3OC[C@H](O)CC(C)C)OCO4)C(=O)Nc3c(F)cccc31)OCO2` [CMLD013623, 7-fluoro-3,3-bis(6-(((R)-2-hydroxy-4-methylpentyl)oxy)benzo[d][1,3]dioxol-5-yl)indolin-2-one], 0.036; with `CC(C)(C)C[C@@H](O)COc1cc2c(cc1C1(c3cc4c(cc3OC[C@H](O)CC(C)(C)C)OCO4)C(=O)Nc3c(F)cccc31)OCO2` [CMLD013624, 7-fluoro-3,3-bis(6-(((R)-2-hydroxy-4,4-dimethylpentyl)oxy)benzo[d][1,3]dioxol-5-yl)indolin-2-one], 0.068.
For `CC(C)C[C@@H](O)COc1cc2c(cc1C1(c3cc4c(cc3OC[C@H](O)CC(C)C)OCCO4)C(=O)Nc3cc(F)ccc31)OCCO2` [CMLD013648, 6-fluoro-3,3-bis(7-(((2R)-2-hydroxy-4-methylpentyl)oxy)-2,3-dihydro-1,4-benzodioxin-6-yl)-2,3-dihydro-1H-indol-2-one] the value was 0.255.
For `CC(C)C[C@@H](O)COc1cc2c(cc1C1(c3cc4c(cc3OC[C@H](O)CC(C)C)OCO4)C(=O)Nc3ccc(Br)cc31)OCO2` [CMLD013650, 5-bromo-3,3-bis(6-(((2R)-2-hydroxy-4-methylpentyl)oxy)-2H-1,3-benzodioxol-5-yl)-2,3-dihydro-1H-indol-2-one] the value was 0.300.
In the case of `CC(C)C[C@@H](O)COc1cc2c(cc1C1(c3cc4c(cc3OC[C@H](O)CC(C)C)OCO4)C(=O)Nc3cc(Br)ccc31)OCO2` [CMLD013651, 6-bromo-3,3-bis(6-(((2R)-2-hydroxy-4-methylpentyl)oxy)-2H-1,3-benzodioxol-5-yl)-2,3-dihydro-1H-indol-2-one], the FICI was 0.130.
As to `CC(C)(C)C[C@@H](O)COc1cc2c(cc1C1(c3cc4c(cc3OC[C@H](O)CC(C)(C)C)OCO4)C(=O)Nc3ccc(Br)cc31)OCO2` [CMLD013652, 5-bromo-3,3-bis(6-(((2R)-2-hydroxy-4,4-dimethylpentyl)oxy)-2H-1,3-benzodioxol-5-yl)-2,3-dihydro-1H-indol-2-one], the FICI was found to be 0.175.
Regarding `CC(C)C[C@@H](O)COc1cc2c(cc1C1(c3cc4c(cc3OC[C@H](O)CC(C)C)OCCO4)C(=O)Nc3c(F)cccc31)OCCO2` [CMLD013654, 7-fluoro-3,3-bis(7-(((2R)-2-hydroxy-4-methylpentyl)oxy)-2,3-dihydro-1,4-benzodioxin-6-yl)-2,3-dihydro-1H-indol-2-one], the FICI came to 0.255.
With `CCC[C@@H](O)COc1cc2c(cc1C1(c3cc4c(cc3OCC)OCO4)C(=O)Nc3c(F)cccc31)OCO2` (stereo partly drawn) [CMLD013655, 3-(6-ethoxy-2H-1,3-benzodioxol-5-yl)-7-fluoro-3-(6-(((2R)-2-hydroxypentyl)oxy)-2H-1,3-benzodioxol-5-yl)-2,3-dihydro-1H-indol-2-one] the figure was 0.113; with `O=C1Nc2ccccc2C1(c1ccc(O)cc1)c1ccc(O)cc1` [Oxyphenisatin, oxyphenisatin, reference compound], 2.
Consider `C=C(C)C[C@@H](O)COc1cc2c(cc1C1(c3cc4c(cc3OCC)OCO4)C(=O)Nc3cc(F)ccc31)OCO2` (stereo partly drawn) [RT-162S-015, 3-(6-ethoxybenzo[d][1,3]dioxol-5-yl)-6-fluoro-3-(6-(((R)-2-hydroxy-4-methylpent-4-en-1-yl)oxy)benzo[d][1,3]dioxol-5-yl)indolin-2-one], for which the FICI was 0.133.
